In patent US10954253B2, “1,2-dihydro-3H-pyrazolo[3,4-d]pyrimidin-3-one derivative as Wee1 inhibitor” (SHIJIAZHUANG SAGACITY NEW DRUG DEVELOPMENT CO., LTD., priority 2017, dated 2021):

Each molecule was assayed against Wee1 (Homo sapiens (Human), UniProt P30291) (assay: In vitro enzymatic inhibitory activity (33P-ATP filter-binding kinase assay, MBP substrate)). Details: Wee-1 150 nM, MBP 20 μM.
Assay type: biochemical
Method: The compounds of the present invention for experimental use were all self-prepared, and their chemical names and structural formulas are shown in the preparation embodiments of the respective compounds. The experimental tests were carried out in Reaction Biology Corporation, USA, and the experimental results were provided by the company. Basic reaction buffer: 20 mM hydroxyethylpiperazine ethanesulfuric acid (pH 7.5), 10 mM magnesium chloride, 1 mM EGTA, 0.02% Brij35, 0.02 mg/mL bovine serum albumin, 0.1 mM Na3VO4, 2 mM DTT, 1% DMSO Enzyme: Wee-1 concentration is 150 nM Matrix: MBP concentration is 20 μM The tested compound was formulated into a 5 mM solution with 100% DMSO, and a 10 points 3-fold gradient dilution was performed with DMSO through an automated pipetting station epMotion 5070. 1. Fresh matrix configuration reaction buffer was prepared; 2. The Wee-1 was added into the matrix solution and shaked gently; 3. DMSO solution of the compound were added into the kinase reaction mixture using an acoustic technique (Echo 550; nanoliter range) and incubated for 20 minutes at room temperature; 4. ^33P-ATP (specific activity, 10 μCi/μL) was added into the reaction mixture to stimulate the reaction; 5. Incubated for 2 hours at room temperature; 6. Kinase activity was detected by filter-binding method.

Wee1, sequence (P30291 whole entry): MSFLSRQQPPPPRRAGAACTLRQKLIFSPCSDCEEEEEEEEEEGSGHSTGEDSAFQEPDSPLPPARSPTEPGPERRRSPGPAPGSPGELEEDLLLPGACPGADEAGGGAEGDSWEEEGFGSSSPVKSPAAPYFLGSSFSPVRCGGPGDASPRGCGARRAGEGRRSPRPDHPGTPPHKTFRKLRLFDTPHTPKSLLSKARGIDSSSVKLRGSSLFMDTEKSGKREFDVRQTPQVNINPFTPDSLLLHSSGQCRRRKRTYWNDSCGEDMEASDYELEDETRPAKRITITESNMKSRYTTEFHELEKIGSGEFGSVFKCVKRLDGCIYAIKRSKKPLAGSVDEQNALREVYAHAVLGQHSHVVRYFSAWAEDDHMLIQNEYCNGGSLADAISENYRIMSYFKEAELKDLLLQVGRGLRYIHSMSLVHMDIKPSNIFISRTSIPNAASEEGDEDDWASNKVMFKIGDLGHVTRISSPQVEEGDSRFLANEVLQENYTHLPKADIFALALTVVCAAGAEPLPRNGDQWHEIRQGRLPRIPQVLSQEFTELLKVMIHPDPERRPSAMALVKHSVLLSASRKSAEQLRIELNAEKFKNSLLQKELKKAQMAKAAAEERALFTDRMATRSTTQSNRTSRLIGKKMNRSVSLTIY

SMILES	IC50 [nM]
C=CCn1c(=O)c2cnc(Nc3ccc(N4CCC5(CCN(C)CC5)CC4)cc3)nc2n1-c1ncccn1 [Embodiment 4, 2-allyl-6-((4-(9-methyl-3,9-diazaspiro[5.5]undecan-3-yl)phenyl)amino)-1-(pyrimidin-2-yl)-1H-pyazolo[3,4-d]pyrimidine-3(2H)-one]	251
C=CCn1c(=O)c2cnc(Nc3ccc(N4CCC5(CCN(C)CC5)CC4)cc3)nc2n1-c1cncnc1 [Embodiment 6, 2-allyl-6-((4-(9-methyl-3,9-diazaspiro[5.5]undecan-3-yl)phenyl)amino)-1-(pyrimidin-5-yl)-1H-pyrazolo[3,4-d]pyrimidin-3(2H)-one]	102
C=CCn1c(=O)c2cnc(Nc3ccc(N4CCC5(CCN(C)CC5)CC4)cc3)nc2n1-c1cccs1 [Embodiment 7, 2-allyl-6-((4-(9-methyl-3,9-diazaspiro[5.5]undecan-3-yl)phenyl)amino)-1-(thiophen-2-yl)-1H-pyrazolo[3,4-d]pyrimidin-3(2H)-one]	82.5
C=CCn1c(=O)c2cnc(Nc3ccc(N4CCC5(CCN(C)CC5)CC4)cc3)nc2n1-c1ccsc1 [Embodiment 8, 2-allyl-6-((4-(9-methyl-3,9-diazaspiro[5.5]undecan-3-yl)phenyl)amino)-1-(thiophen-3-yl)-1H-pyrazolo[3,4-d]pyrimidin-3(2H)-one]	51.9
C=CCn1c(=O)c2cnc(Nc3ccc(N4CCC5(CCN(C)CC5)CC4)cc3)nc2n1-c1nccs1 [Embodiment 9, 2-allyl-6-((4-(9-methyl-3,9-diazaspiro[5.5]undecan-3-yl)phenyl)amino)-1-(thiazol-2-yl)-1H-pyrazolo[3,4-d]pyrimidin-3(2H)-one]	109
C=CCn1c(=O)c2cnc(Nc3ccc(N4CCC5(CCN(C)CC5)CC4)cc3)nc2n1-c1cccc(Cl)c1 [Embodiment 11, 2-allyl-1-(3-chlorophenyl)-6-((4-(9-methyl-3,9-diazaspiro[5.5]undecan-3-yl)phenyl)amino)-1H-pyrazolo[3,4-d]pyrimidin-3(2H)-one]	48.1
C=CCn1c(=O)c2cnc(Nc3ccc(N4CCC5(CCN(C)CC5)CC4)cc3)nc2n1-c1ccc(Cl)cc1 [Embodiment 12, 2-allyl-1-(4-chlorophenyl)-6-((4-(9-methyl-3,9-diazaspiro[5.5]undecan-3-yl)phenyl)amino)-1H-pyrazolo[3,4-d]pyrimidin-3(2H)-one]	25.3
C=CCn1c(=O)c2cnc(Nc3ccc(N4CCC5(CCN(C)CC5)CC4)cc3)nc2n1-c1cccc(C(N)=O)n1 [Embodiment 13, 6-(2-allyl-6-((4-(9-methyl-3,9-diazaspiro[5.5]undecan-3-yl)phenyl)amino)-3-oxo-2,3-dihydro-1H-pyrazolo[3,4-d]pyrimidin-1-yl)picolinamide]	42

Next, values leading:

IC50 [nM]	SMILES
47.8	C=CCn1c(=O)c2cnc(Nc3ccc(N4CCC5(CCN(C)CC5)CC4)cc3)nc2n1-c1cccc(C(=O)NC)n1 [Embodiment 14, 6-(2-allyl-6-((4-(9-methyl-3,9-diazaspiro[5.5]undecan-3-yl)phenyl)amino)-3-oxo-2,3-dihydro-1H-pyrazolo[3,4-d]pyrimidin-1-yl)-N-methylpicolinamide]
52.8	C=CCn1c(=O)c2cnc(Nc3ccc(N4CCC5(CCN(C)CC5)CC4)cc3)nc2n1-c1cccc(C(N)=O)c1 [Embodiment 16, 3-(2-allyl-6-((4-(9-methyl-3,9-diazaspiro[5.5]undecan-3-yl)phenyl)amino)-3-oxo-2,3-dihydro-1H-pyrazolo[3,4-d]pyrimidin-1-yl)benzamide]
42.5	C=CCn1c(=O)c2cnc(Nc3ccc(N4CCC5(CCN(C)CC5)CC4)cc3)nc2n1-c1cccc(C(=O)NC)c1 [Embodiment 17, 3-(2-allyl-6-((4-(9-methyl-3,9-diazaspiro[5.5]undecan-3-yl)phenyl)amino)-3-oxo-2,3-dihydro-1H-pyrazolo[3,4-d]pyrimidin-1-yl)-N-methylbenzamide]
131	CN1CCC2(CC1)CCN(c1ccc(Nc3ncc4c(=O)n(C)n(-c5ccccc5)c4n3)cc1)CC2 [Embodiment 18, 2-methyl-6-((4-(9-methyl-3,9-diazaspiro[5.5]undecane-3-yl)phenyl)amino)-1-phenyl-1H-pyrazolo[3,4-d](2H)-one]
